Results as given in US12264156B2, “Compounds and pharmaceutical compositions thereof for the treatment of diseases” (GALAPAGOS NV, priority 2018, dated 2025).

What was measured:
[1] = biological target: T1, SIK1 (Homo sapiens, UniProt P57059); test: ADP-Glo kinase assay, SIK1; format: biochemical; conditions: ADP-Glo SIK kinase assay
T1 construct: purchased Carna Biosciences 02-131
Procedure, shortened: (§1)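 ADP-Glo, RT throughout. Enz/substrate + ATP, 120 min; ADP-Glo reagent 40 min (ATP depletion); detection reagent 30 min; luminescence read. Neg ctrl 1% DMSO, pos ctrl 10 μM staurosporine, final concs.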

[2] = biological target: T2, SIK2 (Homo sapiens, UniProt Q9H0K1); test: ADP-Glo kinase assay, SIK2; format: biochemical; conditions: ADP-Glo SIK kinase assay
T2 construct: purchased ThermoFisher Scientific PV4792
Procedure, shortened: as §1

[3] = biological target: T3, SIK3 (Homo sapiens, UniProt Q9Y2K2); test: ADP-Glo kinase assay, SIK3; format: biochemical; conditions: ADP-Glo SIK kinase assay
T3 construct: purchased SignalChem S12-11G-100
Procedure, shortened: as §1

[4] = system: LPS triggered IL-10 secretion in monocyte-derived macrophages (MdM); test: MdM assay: LPS-triggered IL-10 (ELISA); format: cell-based, human; conditions: LPS 200 ng/mL, supernatant after 2 h, maximal fold change vs LPS only
Experimental: SIK inhibition inhibits TNFα and increases IL-10 release in LPS triggered monocyte-derived macrophages (MdM) and dendritic […] al. 2012; Sundberg et al. 2014; Ozanne et al. 2015). This assay evaluates illustrative compounds of the invention for their inhibition of LPS-induced TNFα and LPS triggered IL-10 secretion in monocyte-derived macrophages. PBMCs are isolated from human blood samples (buffycoats). The buffy coat is aseptically transferred into a 50 mL Falcon tube, and diluted 1/2 in PBS. Falcon tubes are filled with 20 mL LymphoprepTM, on top of which 25 mL of the buffy coat is carefully added, tubes are centrifuged for 35 min at 400 g in temperature controlled centrifuge, without brake, at 25° C. PBMCs are aspirated from the white interface layer between sample and LymphoprepTM. PBMCs are washed five times in PBS. Cells are resuspended in RPMI 1640 complete medium supplemented with 10% FBS, 1% P/S, and cell density is determined using a hematologic analyzer (Sysmex XS-500i). PBMCs are centrifuged at 300×g for 10 min and resuspended at a density of 1.0*10^7 cells/80 μL Miltenyi buffer (PBS, pH 7.4, 1% FBS, 2 mM EDTA). Starting from this point of the protocol all steps are performed on ice. 20 μL of CD14+ micro-beads are added per 1.0*10^7 cells, the tube is mixed and incubated for 15 min in the fridge at 4° C. Cell suspension volume is adjusted to total volume of 100 mL using Miltenyi buffer, mixed gently and subsequently centrifuged for 10 min at 300×g. Supernantant is discarded and cell pellet is resuspended in 12 mL of Miltenyi buffer. Four LS columns are placed in the MACS Separator (magnet) from Miltenyi Biotec, and are prewet by rinsing with 3 mL of MACS buffer per column. Three mL of cell suspension is added onto the column (max 1*10^8 of labelled cells/column), and columns are subsequently washed 3 times with 3 mL of Miltenyi buffer. The columns are removed from the magnets, and 5 mL of Miltenyi buffer are added to the column to flush out the CD14+ fraction by pushing the plunger into the column. The flushed fractions are collected in a fresh 50 mL Falcon and volume is adjusted to 30 mL using Miltenyi buffer, cells are centrifuged for 10 min at 300×g. The obtained cell pellet is resuspended in 10 mL RPMI w/o FBS, and cell density is determined using a hematologic analyser (Sysmex XS-500i). 100 000 cells are seeded per well of a 96-well plate for differentiation to MdM in RPMI 1640 medium supplemented with 10% FBS, 1% P/S and 100 ng/mL rhM-CSF. On day 5 the medium is refreshed with 100 μL RPMI 1640 medium supplemented with 10% FBS, 1% P/S and 100 ng/mL rhM-CSF. On day 10, MdMs are triggered and compound is added. A compound dilution plate is made in 100% DMSO by 3-fold dilution of 10 mM stock solution. An intermediate dilution plate (10× final concentration) is made by diluting the compound dilution plate 50-fold in RPMI medium. Medium is carefully removed from cell plates using multichannel pipette, and replaced by 80 μL fresh medium. 10 μL of the 10× final concentration compound is added to the cells and incubated for 1 hour at 37° C. before addition of trigger. No trigger conditions/trigger conditions are spiked with equal final DMSO concentrations of 0.2% DMSO. 10 μL of 10×LPS (final conc. 200 ng/mL) solution are added to all wells except for the 'no trigger wells' where 10 μL medium is added. Supernatant is collected after 2 h (IL-10 determination) and after 20 h (TNFα determination) of LPS triggering. […]

T1 sequence (P57059 whole entry): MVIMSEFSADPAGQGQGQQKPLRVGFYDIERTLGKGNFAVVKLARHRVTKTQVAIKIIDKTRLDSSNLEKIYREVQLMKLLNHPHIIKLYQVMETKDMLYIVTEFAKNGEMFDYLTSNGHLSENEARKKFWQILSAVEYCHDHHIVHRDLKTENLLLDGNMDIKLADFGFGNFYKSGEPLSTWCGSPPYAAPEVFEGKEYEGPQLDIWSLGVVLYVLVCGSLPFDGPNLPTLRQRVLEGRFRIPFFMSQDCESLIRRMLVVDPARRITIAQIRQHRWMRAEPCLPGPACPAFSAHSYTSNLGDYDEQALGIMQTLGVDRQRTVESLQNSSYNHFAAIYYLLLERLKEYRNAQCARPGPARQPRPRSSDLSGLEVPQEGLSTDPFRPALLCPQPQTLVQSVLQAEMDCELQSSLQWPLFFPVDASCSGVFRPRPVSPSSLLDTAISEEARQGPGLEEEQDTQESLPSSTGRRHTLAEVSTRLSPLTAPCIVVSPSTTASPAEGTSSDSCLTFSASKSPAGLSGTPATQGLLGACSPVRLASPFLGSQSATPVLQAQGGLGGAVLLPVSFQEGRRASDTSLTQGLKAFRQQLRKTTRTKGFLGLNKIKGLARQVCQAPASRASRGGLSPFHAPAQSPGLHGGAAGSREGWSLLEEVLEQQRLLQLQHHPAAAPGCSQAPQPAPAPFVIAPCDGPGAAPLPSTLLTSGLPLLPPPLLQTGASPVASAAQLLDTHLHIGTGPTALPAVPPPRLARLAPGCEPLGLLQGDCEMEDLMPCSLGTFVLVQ
T2 sequence (Q9H0K1 whole entry): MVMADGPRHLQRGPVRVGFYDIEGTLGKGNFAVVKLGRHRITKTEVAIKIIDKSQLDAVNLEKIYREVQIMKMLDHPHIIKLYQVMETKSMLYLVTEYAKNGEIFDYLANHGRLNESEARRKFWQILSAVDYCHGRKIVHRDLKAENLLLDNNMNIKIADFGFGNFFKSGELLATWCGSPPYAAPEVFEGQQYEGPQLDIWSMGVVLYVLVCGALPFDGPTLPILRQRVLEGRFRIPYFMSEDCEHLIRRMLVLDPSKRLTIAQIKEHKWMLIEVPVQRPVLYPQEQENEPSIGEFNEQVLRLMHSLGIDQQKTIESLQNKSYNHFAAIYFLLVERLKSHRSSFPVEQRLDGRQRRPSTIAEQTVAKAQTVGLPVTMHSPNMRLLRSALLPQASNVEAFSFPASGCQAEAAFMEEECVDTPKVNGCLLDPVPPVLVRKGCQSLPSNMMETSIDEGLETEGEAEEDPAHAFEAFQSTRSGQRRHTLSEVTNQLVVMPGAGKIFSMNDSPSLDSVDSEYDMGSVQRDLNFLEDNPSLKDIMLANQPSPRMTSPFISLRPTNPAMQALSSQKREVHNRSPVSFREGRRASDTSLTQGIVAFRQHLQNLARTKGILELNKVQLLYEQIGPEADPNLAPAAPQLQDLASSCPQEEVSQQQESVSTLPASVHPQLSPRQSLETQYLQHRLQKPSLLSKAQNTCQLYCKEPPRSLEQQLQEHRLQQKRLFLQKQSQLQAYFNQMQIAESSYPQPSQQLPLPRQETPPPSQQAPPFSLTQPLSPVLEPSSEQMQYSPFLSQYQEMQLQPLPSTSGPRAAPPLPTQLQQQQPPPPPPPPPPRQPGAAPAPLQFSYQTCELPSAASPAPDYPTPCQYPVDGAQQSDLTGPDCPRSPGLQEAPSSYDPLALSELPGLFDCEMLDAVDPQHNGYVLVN
T3 sequence (Q9Y2K2 whole entry): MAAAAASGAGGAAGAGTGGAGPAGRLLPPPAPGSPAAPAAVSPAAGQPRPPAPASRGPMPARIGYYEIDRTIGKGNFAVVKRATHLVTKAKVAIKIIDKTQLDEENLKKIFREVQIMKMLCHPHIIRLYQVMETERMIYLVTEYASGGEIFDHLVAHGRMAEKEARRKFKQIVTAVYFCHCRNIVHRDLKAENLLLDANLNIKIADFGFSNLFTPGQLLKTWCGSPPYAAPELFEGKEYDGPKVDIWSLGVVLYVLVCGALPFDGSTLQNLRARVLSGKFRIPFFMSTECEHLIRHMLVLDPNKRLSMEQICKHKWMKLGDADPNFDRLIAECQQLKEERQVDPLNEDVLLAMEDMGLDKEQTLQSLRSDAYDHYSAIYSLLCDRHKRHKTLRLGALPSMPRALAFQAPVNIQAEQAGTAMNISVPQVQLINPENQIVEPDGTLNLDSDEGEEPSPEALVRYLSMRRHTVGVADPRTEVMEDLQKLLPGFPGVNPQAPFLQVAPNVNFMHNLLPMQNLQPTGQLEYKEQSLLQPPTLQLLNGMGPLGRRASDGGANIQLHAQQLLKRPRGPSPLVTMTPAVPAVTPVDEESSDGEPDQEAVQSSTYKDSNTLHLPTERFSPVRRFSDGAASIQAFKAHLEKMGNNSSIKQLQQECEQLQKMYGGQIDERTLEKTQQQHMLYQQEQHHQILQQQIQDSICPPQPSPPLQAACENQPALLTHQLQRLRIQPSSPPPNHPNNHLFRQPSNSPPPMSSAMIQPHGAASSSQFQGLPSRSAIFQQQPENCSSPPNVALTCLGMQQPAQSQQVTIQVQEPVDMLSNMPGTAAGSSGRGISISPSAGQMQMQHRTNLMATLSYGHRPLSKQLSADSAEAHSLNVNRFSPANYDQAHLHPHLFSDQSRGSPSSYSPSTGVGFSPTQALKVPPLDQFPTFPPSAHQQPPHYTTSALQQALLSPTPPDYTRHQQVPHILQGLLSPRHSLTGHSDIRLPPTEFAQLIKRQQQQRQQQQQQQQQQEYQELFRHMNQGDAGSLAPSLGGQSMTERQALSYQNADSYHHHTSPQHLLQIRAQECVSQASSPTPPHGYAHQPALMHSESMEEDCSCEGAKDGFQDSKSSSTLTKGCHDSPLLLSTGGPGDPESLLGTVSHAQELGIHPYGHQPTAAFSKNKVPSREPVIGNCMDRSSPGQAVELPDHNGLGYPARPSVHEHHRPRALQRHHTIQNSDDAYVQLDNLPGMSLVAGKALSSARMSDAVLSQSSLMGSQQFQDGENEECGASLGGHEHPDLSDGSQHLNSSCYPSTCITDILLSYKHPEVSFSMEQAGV

IC50 [1] [nM]	IC50 [2] [nM]	IC50 [3] [nM]	Compound	IL-10 FCmax median [4]
10 to 100	0.01 to 10	0.01 to 10	COc1cc(-c2cnc3cc(OCCN4CCCCC4)ccn23)cc(OC(F)F)c1C(=O)NC1CC1 [compound 10, N-cyclopropyl-2-(difluoromethoxy)-6-methoxy-4-[7-[2-(1-piperidyl)ethoxy]imidazo [1,2-a]pyridin-3-yl]benzamide]	++ (>1.5-4.5)
100 to 500	0.01 to 10	0.01 to 10	COc1cc(-c2cnc3cc(OC[C@H]4CCCCN4C)ccn23)cc(OC(F)F)c1C(=O)NC1CC1 [compound 111, N-cyclopropyl-2-(difluoromethoxy)-6-methoxy-4-[7-[[(2R)-1-methyl-2-piperidyl]methoxy]imidazo[1,2-a]pyridin-3-yl]benzamide]	++ (>1.5-4.5)
100 to 500	0.01 to 10	0.01 to 10	COc1cc(-c2cnc3cc(OC[C@H]4CCCN4C)ccn23)cc(OC(F)F)c1C(=O)NC1CC1 [compound 81, N-cyclopropyl-2-(difluoromethoxy)-6-methoxy-4-[7-[[(2R)-1-methylpyrrolidin-2-yl]methoxy]imidazo[1,2-a]pyridin-3-yl]benzamide]	++ (>1.5-4.5)
> 500	0.01 to 10	10 to 100	COc1cc(-c2cnc3cc(OCCN(C)C)ccn23)cc2c1C(=O)N(CC(F)(F)F)CC2 [Cpd 18, 6-[7-[2-(dimethylamino)ethoxy]imidazo[1,2-a]pyridin-3-yl]-8-methoxy-2-(2,2,2-trifluoroethyl)-3,4-dihydroisoquinolin-1-one]	++ (>1.5-4.5)
100 to 500	0.01 to 10	0.01 to 10	COc1cc(-c2cnc3cc(OCCN4CCS(=O)(=O)CC4)ccn23)cc2c1C(=O)N(CC(F)(F)F)CC2 [compound 41, 6-[7-[2-(1,1-dioxo-1,4-thiazinan-4-yl)ethoxy]imidazo[1,2-a]pyridin-3-yl]-8-methoxy-2-(2,2,2-trifluoroethyl)-3,4-dihydroisoquinolin-1-one]	++ (>1.5-4.5)
100 to 500	0.01 to 10	0.01 to 10	CCN1CCCCC1COc1ccn2c(-c3cc(OC)c(C(=O)NC4CC4)c(OC(F)F)c3)cnc2c1 (centres unmarked) [compound 83, N-cyclopropyl-2-(difluoromethoxy)-4-[7-[(1-ethyl-2-piperidyl)methoxy]imidazo [1,2-a]pyridin-3-yl]-6-methoxy-benzamide]	++ (>1.5-4.5)
> 500	0.01 to 10	10 to 100	CNc1cc(-c2cnc3cc(OCCN(C)C)ccn23)cc2c1C(=O)N(CC(F)(F)F)CC2 [compound 167, 6-[7-[2-(dimethylamino)ethoxy]imidazo[1,2-a]pyridin-3-yl]-8-(methylamino)-2-(2,2,2-trifluoroethyl)-3,4-dihydroisoquinolin-1-one]	+ (≤1.5)
10 to 100	0.01 to 10	0.01 to 10	CN(C)CCOc1ccn2c(-c3cc(OC(F)F)c(C(=O)NC4CC4)c(OC(F)F)c3)cnc2c1 [compound 156, N-cyclopropyl-2,6-bis(difluoromethoxy)-4-[7-[2-(dimethylamino)ethoxy]imidazo[1,2-a]pyridin-3-yl]benzamide]	++ (>1.5-4.5)
100 to 500	0.01 to 10	0.01 to 10	COc1cc(-c2cnc3cc(OCc4cnco4)ccn23)cc2c1C(=O)N(CC(F)(F)F)CC2 [compound 126, 8-methoxy-6-[7-(oxazol-5-ylmethoxy)imidazo[1,2-a]pyridin-3-yl]-2-(2,2,2-trifluoroethyl)-3,4-dihydroisoquinolin-1-one]	+ (≤1.5)
100 to 500	0.01 to 10	0.01 to 10	COc1cc(-c2cnc3cc(OC[C@@H]4COCCO4)ccn23)cc2c1C(=O)N(CC(F)(F)F)CC2 [compound 225, 6-[7-[[(2S)-1,4-dioxan-2-yl]methoxy]imidazo[1,2-a]pyridin-3-yl]-8-methoxy-2-(2,2,2-trifluoroethyl)-3,4-dihydroisoquinolin-1-one]	++ (>1.5-4.5)
10 to 100	0.01 to 10	0.01 to 10	COc1cc(-c2cnc3cc(OCC4(C)CN(C)C4)ccn23)cc(OC(F)F)c1C(=O)NC1CC1 [compound 220, N-cyclopropyl-2-(difluoromethoxy)-4-[7-[(1,3-dimethylazetidin-3-yl)methoxy]imidazo[1,2-a]pyridin-3-yl]-6-methoxy-benzamide]	++ (>1.5-4.5)
100 to 500	0.01 to 10	0.01 to 10	COc1cc(-c2cnc3cc(OCCN(C)C)ccn23)cc(OC(F)F)c1C(=O)NC1CC1 [Cpd 6, N-cyclopropyl-2-(difluoromethoxy)-4-[7-[2-(dimethylamino)ethoxy]imidazo[1,2-a]pyridin-3-yl]-6-methoxy-benzamide]	++ (>1.5-4.5)
100 to 500	10 to 100	0.01 to 10	COc1cc(-c2cnc3cc(OCCN4CCOC[C@@H]4C)ccn23)cc2c1C(=O)N(CC(F)(F)F)CC2 [Cpd 257, 8-methoxy-6-[7-[2-[(3S)-3-methylmorpholin-4-yl]ethoxy]imidazo[1,2-a]pyridin-3-yl]-2-(2,2,2-trifluoroethyl)-3,4-dihydroisoquinolin-1-one]	++ (>1.5-4.5)
100 to 500	10 to 100	0.01 to 10	COc1cc(-c2cnc3cc(OC[C@H]4COCCO4)ccn23)cc2c1C(=O)N(CC(F)(F)F)CC2 [Cpd 86, 6-[7-[[(2R)-1,4-dioxan-2-yl]methoxy]imidazo[1,2-a]pyridin-3-yl]-8-methoxy-2-(2,2,2-trifluoroethyl)-3,4-dihydroisoquinolin-1-one]	++ (>1.5-4.5)
10 to 100	0.01 to 10	0.01 to 10	CCNCCOc1ccn2c(-c3cc(OC)c(C(=O)NC4CC4)c(OC(F)F)c3)cnc2c1 [compound 37, N-cyclopropyl-2-(difluoromethoxy)-4-[7-[2-(ethylamino)ethoxy]imidazo[1,2-a]pyridin-3-yl]-6-methoxy-benzamide]	++ (>1.5-4.5)
100 to 500	0.01 to 10	0.01 to 10	COc1cc(-c2cnc3cc(OCC(C)(C)N)ccn23)cc(OC(F)F)c1C(=O)NC1CC1 [compound 104, 4-[7-(2-amino-2-methyl-propoxy)imidazo[1,2-a]pyridin-3-yl]-N-cyclopropyl-2-(difluoromethoxy)-6-methoxy-benzamide]	+ (≤1.5)
100 to 500	0.01 to 10	0.01 to 10	COc1cc(-c2cnc3cc(OCC4(F)CN(C)C4)ccn23)cc2c1C(=O)N(CC(F)(F)F)CC2 [compound 252, 6-[7-[(3-fluoro-1-methyl-azetidin-3-yl)methoxy]imidazo[1,2-a]pyridin-3-yl]-8-methoxy-2-(2,2,2-trifluoroethyl)-3,4-dihydro isoquinolin-1-one]	++ (>1.5-4.5)
